Assay results as given in patent US10647743B2, “Method of making biologically active alpha-beta peptides” (priority 2008, dated 2020).
Read-outs that look alike come from different tables or passages of the source.

Assays:
Bcl-xL [1] = molecular target: T1, Bcl-xL (Homo sapiens, UniProt Q07817); assay: competition FP with fluorescently labeled Bak-BH3 peptide, Bcl-xL; format: binding
Mcl-1 = Mcl-1 (Homo sapiens, UniProt Q07820); assay: direct-binding FP of BODIPY-TMR labeled analogs, Mcl-1; conditions: Table 5, BODIPY-labeled analogues
Bcl-xL [2] = molecular target: T1, Bcl-xL; assay: biochemical
proteinase K [3] = molecular target: T2, proteinase K (Parengyodontium album, UniProt P06873); assay: proteinase K stability of Puma BH3 peptides
proteinase K [4] = molecular target: T2, proteinase K; assay: in vitro; conditions: proteinase K solution in TBS
NHR α-peptide 1 = molecular target: T3, NHR α-peptide 1 (Human immunodeficiency virus type 1 group M subtype B, UniProt P04578); assay: CD thermal unfolding of 1:1 NHR + CHR peptide mixtures; format: physicochemical, HIV; conditions: Table 2; CD at 222 nm, 1:1 mixture with NHR α-peptide 1, PBS, 20 μM total peptide
T3 construct: made in house; host or cells: chemical synthesis (Fmoc solid phase)
Method: The interactions of select α/β-peptides with the gp41 NHR domain were further investigated by circular dichroism (CD) spectroscopy. The CD spectra of 3, 4, 5, 8, 9 and were measured, both alone (see FIG. 5A) and in a 1:1 mixture with NHR α-peptide 1 (see FIGS. 3A, 3B, 3C, and 3D, respectively). See also FIGS. 5B and 5C for the superimposed spectra. […] The magnitude of the CD signatures among the well-folded mixtures (1+3, 1+5 and 1+10, FIGS. 3A, 3C, and 3D, respectively) are similar, but the ratio of intensities at 208 and 222 nm changes as a function of β-residue content (more β-residues tracks with a less intense peak at 222 nm).
The interactions of CHR α-peptide 3 and α/β-peptide analogues 4, 5, 8 and 10 with a peptide derived from the gp41 NHR domain (1) were investigated by circular dichroism (CD) spectroscopy. […] The magnitude of the CD signatures among the well-folded mixtures (1+3, 1+5, 1+8 and 1+10) are similar, but the ratio of intensities at 208 and 222 nm changes as a function of β-residue content (higher β-residue content is correlated with a less intense peak at 222 nm). This trend is consistent with previous studies on helical oligomers containing mixed α/β backbones.
Circular Dichroism Spectroscopy. Circular dichroism measurements were carried out on an Aviv 202SF Circular Dichroism Spectrophotometer. Samples of each peptide were prepared at 20 μM concentration in PBS. Solutions of 1:1 peptide mixtures were prepared by mixing equal volumes from the same 20 μM stock solutions used for individual peptide measurements. Spectra were recorded in a 1 mm cell with a step size of 1 nm and an averaging time of 5 sec. All spectra are background corrected against buffer measured in the same cell. Thermal melts were carried out in 5-degree increments with an equilibration time of 10 min between each temperature change. Thermal unfolding data were fit to a simple two state folding model Shortle, D.; Meeker, A. K.; Freire, E. Biochemistry 1988, 27, 4761-4768) using GraphPad Prism.

HIV-1 CC 1/85 = conditions: read-out: Inhibition of HIV-1 infectivity, IC50 (nM), R5 strains, CC 1/85; TZM-bl cells; mean ± S.E.M., three experiments
HIV-1 NL4-3 = conditions: read-out: Inhibition of HIV-1 infectivity, IC50 (nM), X4 strains, NL4-3; TZM-bl cells; mean ± S.E.M., three experiments
[5] = molecular target: T4, envelope glycoprotein of the HIV-1 clone HXB2 (Human immunodeficiency virus type 1 group M subtype B, UniProt P04578); assay: cell-cell fusion assay; format: cell-based
T4 construct: One cell line expresses HIV-1 Env (processed by cellular proteases to generate gp120+gp41); expressed in transfected cells; host or cells: CHO cells expressing HXB2 env (and Tat); U373-MAGI target cells

proteinase K [6] = molecular target: T2, proteinase K; conditions: under the assay conditions
HIV-1 HC4 = conditions: read-out: Inhibition of HIV-1 infectivity, IC50 (nM), X4 strains, HC4; TZM-bl cells; mean ± S.E.M., three experiments
gp41-5 = gp41-5 (Human immunodeficiency virus type 1 group M subtype B, UniProt P04578, C598G/DEL582-595/DEL601-626/T627G/W596S); assay: biochemical; format: binding, HIV; conditions: competition FP
HIV-1 DJ258 = conditions: read-out: Inhibition of HIV-1 infectivity, IC50 (nM), R5 strains, DJ258; TZM-bl cells; mean ± S.E.M., three experiments
HIV = conditions: background; read-out: anti-HIV IC50 in cell-based assays; cited from earlier work
[7] = Table 4, read-out: gp41-5 binding affinity by FP Ki

T2 sequence (P06873 106-384): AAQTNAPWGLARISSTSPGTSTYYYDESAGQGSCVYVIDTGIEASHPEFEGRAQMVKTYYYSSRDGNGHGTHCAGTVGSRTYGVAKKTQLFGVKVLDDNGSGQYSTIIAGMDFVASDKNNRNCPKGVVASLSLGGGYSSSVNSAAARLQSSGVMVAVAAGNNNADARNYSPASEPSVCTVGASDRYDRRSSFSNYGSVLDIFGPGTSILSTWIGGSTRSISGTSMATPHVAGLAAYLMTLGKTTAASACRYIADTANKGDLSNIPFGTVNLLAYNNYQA
T1 sequence (Q07817 whole entry, species assumed): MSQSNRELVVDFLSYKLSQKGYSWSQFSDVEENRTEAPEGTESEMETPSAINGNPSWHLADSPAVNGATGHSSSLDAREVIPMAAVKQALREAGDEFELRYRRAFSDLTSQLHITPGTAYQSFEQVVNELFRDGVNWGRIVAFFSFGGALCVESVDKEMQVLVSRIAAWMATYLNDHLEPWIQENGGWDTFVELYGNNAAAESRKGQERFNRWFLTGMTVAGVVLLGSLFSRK
Chain of Mcl-1 (Q07820 whole entry, species assumed): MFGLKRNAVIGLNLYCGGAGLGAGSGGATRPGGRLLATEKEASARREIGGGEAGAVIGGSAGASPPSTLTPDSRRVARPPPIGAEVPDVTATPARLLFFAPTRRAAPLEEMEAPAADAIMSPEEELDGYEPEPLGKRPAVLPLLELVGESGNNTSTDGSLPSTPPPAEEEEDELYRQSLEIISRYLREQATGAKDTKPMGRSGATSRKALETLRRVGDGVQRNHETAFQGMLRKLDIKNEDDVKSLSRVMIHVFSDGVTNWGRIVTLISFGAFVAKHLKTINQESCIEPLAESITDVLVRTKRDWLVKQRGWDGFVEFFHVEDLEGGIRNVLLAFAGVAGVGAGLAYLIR

Compound	Ki (Bcl-xL [1]) [nM]	Kd (Mcl-1) [nM]	Kd (Bcl-xL [2]) [nM]	half-life at 50 μm (proteinase K [3]) [h]	half-life at 50 μm (in vitro) [min]	half-life at 20 μM (proteinase K [4]; Tritirachium album (source organism of proteinase K)) [min]	half-life at 20 μM (proteinase K [4]) [min]	NHR + CHR Tm (° C.) (NHR α-peptide 1) [°C]	IC50 (HIV-1 CC 1/85) [nM]	IC50 (HIV-1 NL4-3) [nM]	IC50 [5] [nM]	degradation by proteinase K (proteinase K [6])	IC50 (HIV-1 HC4) [nM]	Ki (gp41-5; Table 2, read-out: gp41-5 Ki) [nM]	Ki (gp41-5; [7]) [nM]	Ki (gp41-5; read-out: Ki for gp41-5) [nM]	IC50 (HIV-1 DJ258) [nM]	IC50 (HIV) [nM]
CC[C@H](C)[C@H](NC(=O)[C@H](CCC(=O)O)NC(=O)C[C@H](CCCNC(=N)N)NC(=O)[C@H](C)NC(=O)[C@H](Cc1c[nH]c2ccccc12)NC(=O)C[C@H](CCC(N)=O)NC(=O)[C@H](CCC(=O)O)NC(=O)[C@H](CCC(=O)O)NC(C)=O)C(=O)NCC(=O)N[C@@H](C)CC(=O)N[C@@H](CCC(N)=O)C(=O)N[C@@H](CC(C)C)C(=O)N[C@@H](CCCNC(=N)N)CC(=O)N[C@@H](CCCNC(=N)N)C(=O)N[C@@H](CCSC)C(=O)N[C@@H](C)C(=O)N[C@@H](CC(=O)O)CC(=O)N[C@@H](CC(=O)O)C(=O)N[C@@H](CC(C)C)C(=O)N[C@@H](CC(N)=O)CC(=O)N[C@@H](C)C(=O)N[C@@H](CCC(N)=O)C(=O)N[C@@H](Cc1ccc(O)cc1)C(=O)N[C@@H](CCC(=O)O)CC(=O)N[C@@H](CCCNC(=N)N)C(=O)N[C@@H](CCCNC(=N)N)C(N)=O [2′]	< 1	110	2.2	> 50	100													
CC[C@H](C)[C@H](NC(=O)C[C@H](CCC(=O)O)NC(=O)[C@H](CCCNC(=N)N)NC(=O)[C@H](C)NC(=O)[C@H](Cc1c[nH]c2ccccc12)NC(=O)C[C@H](CCC(N)=O)NC(=O)[C@H](CCC(=O)O)NC(=O)[C@H](CCC(=O)O)NC(C)=O)C(=O)NCC(=O)N[C@@H](C)CC(=O)N[C@@H](CCC(N)=O)C(=O)N[C@@H](CC(C)C)C(=O)N[C@@H](CCCNC(=N)N)C(=O)N[C@@H](CCCNC(=N)N)CC(=O)N[C@@H](CCSC)C(=O)N[C@@H](C)C(=O)N[C@@H](CC(=O)O)CC(=O)N[C@@H](CC(=O)O)C(=O)N[C@@H](CC(C)C)C(=O)N[C@@H](CC(N)=O)C(=O)N[C@@H](C)CC(=O)N[C@@H](CCC(N)=O)C(=O)N[C@@H](Cc1ccc(O)cc1)C(=O)N[C@@H](CCC(=O)O)CC(=O)N[C@@H](CCCNC(=N)N)C(=O)N[C@@H](CCCNC(=N)N)C(N)=O [3′]				2.83	3.5													
CC[C@H](C)[C@H](NC(=O)[C@H](C)NC(=O)[C@H](CCCNC(=N)N)NC(=O)[C@H](CC(=O)O)NC(=O)[C@H](Cc1c[nH]c2ccccc12)NC(=O)[C@H](C)NC(=O)[C@H](CCC(=O)O)NC(=O)[C@H](Cc1c[nH]c2ccccc12)NC(=O)[C@@H](NC(=O)[C@@H](NC(C)=O)[C@@H](C)O)[C@@H](C)O)C(=O)N[C@@H](C)C(=O)N[C@@H](CCC(=O)O)C(=O)N[C@@H](Cc1ccc(O)cc1)C(=O)N[C@@H](C)C(=O)N[C@@H](C)C(=O)N[C@@H](CCCNC(=N)N)C(=O)N[C@H](C(=O)N[C@@H](CCC(=O)O)C(=O)N[C@@H](C)C(=O)N[C@@H](CC(C)C)C(=O)N[C@H](C(=O)N[C@@H](CCCNC(=N)N)C(=O)N[C@@H](C)C(=O)N[C@@H](C)C(=O)N[C@@H](CCC(N)=O)C(=O)N[C@@H](CCC(=O)O)C(=O)N[C@@H](CCC(N)=O)C(=O)N[C@@H](CCC(N)=O)C(=O)N[C@@H](CCC(=O)O)C(=O)N[C@@H](CCCCN)C(=O)N[C@@H](CC(N)=O)C(=O)N[C@@H](CCC(=O)O)C(=O)N[C@@H](C)C(=O)N[C@@H](C)C(=O)N[C@@H](CC(C)C)C(=O)N[C@@H](CCCNC(=N)N)C(=O)N[C@@H](CCC(=O)O)C(=O)N[C@@H](CC(C)C)C(N)=O)[C@@H](C)CC)[C@@H](C)CC [compound 3, reference compound]						0.7	0.7	77	140 ± 20	5 ± 0.6	9 ± 3	completely degraded within minutes	27 ± 4	≤ 0.2	< 0.2	< 0.2	58 ± 6	
CC[C@H](C)[C@H](NC(=O)[C@H](C)NC(=O)[C@H](CCCNC(=N)N)NC(=O)[C@H](CC(=O)O)NC(=O)[C@H](Cc1c[nH]c2ccccc12)NC(=O)[C@H](C)NC(=O)[C@H](CCC(=O)O)NC(=O)[C@H](Cc1c[nH]c2ccccc12)NC(=O)[C@@H](NC(=O)[C@@H](NC(C)=O)[C@@H](C)O)[C@@H](C)O)C(=O)N[C@@H](C)C(=O)N[C@@H](CCC(=O)O)C(=O)N[C@@H](Cc1ccc(O)cc1)C(=O)N[C@@H](C)C(=O)N[C@@H](C)C(=O)N[C@@H](CCCNC(=N)N)C(=O)N[C@H](C(=O)N[C@@H](CCC(=O)O)C(=O)N[C@@H](C)C(=O)N[C@@H](CC(C)C)C(=O)N[C@H](C(=O)N[C@@H](CCCNC(=N)N)CC(=O)N[C@@H](C)C(=O)N[C@@H](C)C(=O)N[C@@H](CCC(N)=O)C(=O)N[C@@H](CCC(=O)O)CC(=O)N[C@@H](CCC(N)=O)C(=O)N[C@@H](CCC(N)=O)C(=O)N[C@@H](CCC(=O)O)CC(=O)N[C@@H](CCCCN)C(=O)N[C@@H](CC(N)=O)C(=O)N[C@@H](CCC(=O)O)C(=O)N[C@@H](C)CC(=O)N[C@@H](C)C(=O)N[C@@H](CC(C)C)C(=O)N[C@@H](CCCNC(=N)N)CC(=O)N[C@@H](CCC(=O)O)C(=O)N[C@@H](CC(C)C)C(N)=O)[C@@H](C)CC)[C@@H](C)CC [compound 5]								69	270 ± 20	10 ± 2	7 ± 2		55 ± 8	0.2	< 0.2		280 ± 90	
enfuvirtide									1400 ± 400	700 ± 100			250 ± 20				330 ± 60	~1
